Like-named read-outs stand apart in the source and are kept apart here.
Tests used:
[1] = Fraction unbound by modified ultra-filtration method; assay type: in vitro ADME; conditions: plasma
[2] = Plasma pharmacokinetics after oral administration in MOLM13 xenograft mice; assay type: in vivo, mouse; conditions: for V / Vmax: one compartment model; for Km: CrTac:NCR-Foxn1nu nude; for Vmax: Michaelis-Menten elimination
[3] = test system: Rb^S780 phosphorylation (biomarker of CDK4/6 activity); test: Subcutaneous MOLM13 tumor cellular signaling: pRb; conditions: 50 mg/Kg QD multiple-day dosing, at 240 hr; baseline pRb(0) 82,600
MOLM13-Luc tumors = test: Orthotopic tumor burden; assay type: in vivo, mouse; conditions: population mean
[4] = test system: STAT5^Y694 phosphorylation (biomarker of FLT3^ITD activity); test: Subcutaneous MOLM13 tumor cellular signaling: pSTAT5; assay type: in vivo, mouse; conditions: for inhibition of phosphorylation of STAT5 at the time of maximum effect: subcutaneous tumor
[5] = test system: STAT5^Y694 phosphorylation; test: Orthotopic MOLM13-Luc tumor cellular signaling: pSTAT5; assay type: in vivo, mouse; conditions: model estimate (%RSE)
[6] = absorption rate constant fixed based on previous studies ref 21, cited from earlier work

fraction unbound [1]	k el ([2]; CrTac:NCR-Foxn1^nu nude, mouse, plasma, oral)	V ([2]; estimate (%RSE))	ratio of IC50 on pSTAT5, subcutaneous xenograft over orthotopic xenograft ([4]; 27.7 nM vs 6.08 nM)	Km ([2]; mouse, plasma, oral)	Vmax ([2]; estimate (%RSE))	ka ([2]; absorption rate constant, estimate (%RSE))	ratio of IC50 for pSTAT5 inhibition to IC50 for pRb inhibition ([4]; subcutaneous tumor signaling model)	SMILES	measured value of pRb (mean+/−sd) [3]	HR Hill coefficient (MOLM13-Luc tumors; pRb term of orthotopic tumor burden model)	HS Hill coefficient (MOLM13-Luc tumors; pSTAT5 term of orthotopic tumor burden model)	measured value of pSTAT5 (mean+/−sd) ([4]; 50 mg/Kg QD multiple-day dosing, at 240 hr, baseline pSTAT5(0) 18,000)	inhibition of phosphorylation of STAT5 at the time of maximum effect ([4]; single dose 150mg/kg oral)	Hill coefficient of pSTAT5 inhibition (HAMG) [5]	inhibition of phosphorylation of STAT5 at the time of maximum effect ([4]; single dose 10mg/kg oral)	ka (Fixed) [6]	ka (Fixed) ([6]; listed as Sorafenib)
0.0107	5.31e-05 s⁻¹	0.0964 (10) L						CC(C)(C)c1cc(NC(=O)Nc2ccc(-c3cn4c(n3)sc3cc(OCCN5CCOCC5)ccc34)cc2)no1 [AC220, quizartinib]									
		0.109 (7.4) L	4 fold	0.0945 µM	4.16 (3.1) nmol/h	1.00 (20) h^−1		C[C@H]1CC[C@H](n2c3cnccc3c3cnc(Nc4ccc5c(n4)CCN(C(=O)CO)C5)nc32)CC1 [AMG925]	72870+/−1247	14.9	15.1	17020+/−1133	almost completely inhibit	1.92 (4.9)			
		0.0247 (4.4) L		0.00985 µM	0.0736 (12) nmol/h		17 fold	CNC(=O)c1cc(Oc2ccc(NC(=O)Nc3ccc(Cl)c(C(F)(F)F)c3)cc2)ccn1 [sorafenib]							almost completely inhibit	3 h⁻¹	3 (Fixed) h^−1
